In article PMC7278776, “Multidrug Resistance Modulation Activity of Silybin Derivatives and Their Anti-Inflammatory Potential” (Antioxidants, 2020) one finds IC25 and IC50 data, which are given here for 4 molecules.

Counter-ions that a name gives are not always drawn.

Series [1] deals with A2780/DOX. Put plainly: Viability of A2780/DOX cells (resazurin). The protocol: To determine the NO production, the medium was mixed with Griess reagent (0.04 g/mL, prepared in deionized water) in a 1:1 ratio. After 15 min, absorbance was recorded at 540 nm. To determine cell viability, the resazurin solution (0.03 mg/mL in PBS) was added to the cells. After 2 h of incubation, fluorescence was recorded (560/590 nm, ex./em.).
A multidrug resistant ovarian sub-line resistant to doxorubicin (A2780/DOX, Sigma-Aldrich) was cultivated in DMEM medium with 10% FBS and 1 × antibiotic antimycotic solution. Every other passage, doxorubicin at the final concentration of 0.1 µM was added to the culture medium to maintain the resistance of the cell line. To perform experiments, the cells were seeded at 1 × 10^5 cell/mL into the wells of a 96-well plate and incubated for 24 h. Afterwards, the cells were washed with PBS and fresh DMEM medium with tested compounds at 10, 20 and 30 µM were added to each well, except for the control wells. Subsequently, the cells were exposed to increasing concentrations of doxorubicin (0.6–20 µM) for 72 h. After incubation, the resazurin assay was performed as described above. The IC50 of doxorubicin was calculated for both the control and the samples and the fold change was counted up. […] The fold change lower than 1 means an antagonistic effect. (1) FOLD CHANGE=IC50 value of DOX cells treated with chemotherapeutic /IC50 value of DOX cells treated with chemotherapeutic and compound

Series [2] has as its system A2780/DOX. Put plainly: Sensitization of the MDR cell line to doxorubicin. Format: cell-based, human. The following applies: Homo sapiens, no flavonolignan added, same value repeated in each column, read-out: IC50 of doxorubicin alone.
For series [3], the system named is nitric oxide (NO) production by LPS-stimulated macrophages (RAW 264.7). The experiment in a line: NO production by LPS-stimulated macrophages (Griess). The following applies: Mus musculus, RAW264.7; RAW 264.7, LPS 1 µg/mL, 24 h; read-out: NO Production, concentration necessary to halve NO production (IC50). The series is classed as cell-based, mouse. The protocol: Immunomodulatory effect of tested compounds was determined as their ability to decrease nitric oxide (NO) production by LPS-stimulated macrophages (RAW 264.7, Sigma-Aldrich). Briefly, the cells were seeded into the 96-well plate at a density of 1 × 10^6 cells/mL in DMEM medium (supplemented with 2 mM L-glutamine and 1 × antibiotic antimycotic solution). After 48 h, the cells were washed with PBS. The MEM medium enriched with LPS (1 µg/mL) was added to the wells, together with the samples in the concentration range of 6.25–100 µM at a final volume of 100 µL. Indomethacin, a non-steroidal anti-inflammatory drug, was tested as a positive control in the concentration range 6.25–100 µM. After 24 h, the medium was used for the quantification of NO and inflammatory cytokines.
After 15 min, absorbance was recorded at 540 nm.
A general note: The Griess reaction detects nitrite, a stable product of nitric oxide.

The target in series [4] is T1, human recombinant P-gp (Homo sapiens, UniProt P08183).
T1 construct: purchased Promega
T1 sequence (P08183 whole entry): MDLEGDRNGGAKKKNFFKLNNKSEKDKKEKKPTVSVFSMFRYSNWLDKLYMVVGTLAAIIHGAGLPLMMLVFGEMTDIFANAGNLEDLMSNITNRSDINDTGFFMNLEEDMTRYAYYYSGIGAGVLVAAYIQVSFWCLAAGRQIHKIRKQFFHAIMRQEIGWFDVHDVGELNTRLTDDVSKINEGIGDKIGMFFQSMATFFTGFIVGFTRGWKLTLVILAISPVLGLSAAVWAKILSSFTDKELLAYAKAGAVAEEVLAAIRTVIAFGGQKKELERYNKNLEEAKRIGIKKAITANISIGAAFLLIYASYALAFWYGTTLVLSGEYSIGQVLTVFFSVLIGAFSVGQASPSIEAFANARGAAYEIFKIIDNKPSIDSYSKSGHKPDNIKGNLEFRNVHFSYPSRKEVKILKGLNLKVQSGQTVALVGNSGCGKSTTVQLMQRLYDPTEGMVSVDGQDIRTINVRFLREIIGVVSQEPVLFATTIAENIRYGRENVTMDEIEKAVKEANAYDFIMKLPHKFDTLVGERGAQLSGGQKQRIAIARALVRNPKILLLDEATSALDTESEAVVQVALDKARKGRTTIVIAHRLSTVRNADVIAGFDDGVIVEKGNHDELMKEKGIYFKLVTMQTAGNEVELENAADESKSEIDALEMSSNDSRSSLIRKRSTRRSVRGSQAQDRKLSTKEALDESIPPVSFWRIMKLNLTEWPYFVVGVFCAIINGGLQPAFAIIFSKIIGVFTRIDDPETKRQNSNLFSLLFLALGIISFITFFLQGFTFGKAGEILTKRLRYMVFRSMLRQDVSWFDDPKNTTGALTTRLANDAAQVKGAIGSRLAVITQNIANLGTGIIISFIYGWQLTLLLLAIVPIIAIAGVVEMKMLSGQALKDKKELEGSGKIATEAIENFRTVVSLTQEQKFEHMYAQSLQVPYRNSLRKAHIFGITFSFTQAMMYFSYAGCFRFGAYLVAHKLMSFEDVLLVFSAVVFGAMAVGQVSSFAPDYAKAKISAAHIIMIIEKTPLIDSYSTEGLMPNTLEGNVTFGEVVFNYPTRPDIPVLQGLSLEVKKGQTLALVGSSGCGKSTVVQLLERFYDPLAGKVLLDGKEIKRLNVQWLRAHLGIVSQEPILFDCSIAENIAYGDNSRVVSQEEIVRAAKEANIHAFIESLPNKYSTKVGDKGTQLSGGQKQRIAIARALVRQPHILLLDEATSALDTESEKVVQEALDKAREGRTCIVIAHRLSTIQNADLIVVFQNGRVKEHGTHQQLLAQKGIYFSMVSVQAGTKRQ
The experiment in a line: biochemical. The settings on record: verapamil-stimulated P-gp ATPase, membrane fraction; read-out: P-gp, concentration necessary to halve ATP consumption (IC50). The protocol:
The procedure and the dilution of the reagents were performed according to the manufacturer’s instructions. Briefly, the human recombinant P-gp-containing membrane (25 µg) was mixed in a 96-well plate with P-gp–Glo™ Assay buffer (control), verapamil (P-gp substrate, positive control, 0.2 mM), Na3VO4 (P-gp inhibitor, negative control, 0.1 mM), ATP standards (to construct the calibration curve, 0.375–3 mM) or samples (2.5 µL, in the concentration range 0.7–20 mM). After that, MgATP (5 mM) was added to total volume of 50 µL to each well to initiate the ATPase reaction. The plate was incubated for 1 h at 37 °C. Thereafter, the reaction was stopped by adding 50 µL of ATP detection reagent and incubated at room temperature for 20 min. The remaining non-metabolized ATP was detected as a luciferase-generated signal.
Using linear regression, the standard ATP curve was designed, and by subsequent interpolation of relative luminescence (RLU) of standards, the amount of ATP consumed in the samples was recalculated according to the manufacturer’s guidelines.

The subject of series [5] is HepG2 cells. Put plainly: CAA (cellular antioxidant activity) assay. Format: cell-based. The following applies: Homo sapiens; HepG2, DCFH-DA/AAPH; read-out: CAA, concentration necessary to halve the fluorescence response (IC50). The protocol:
For the CAA assay, human hepatocellular carcinoma HepG2 cells (ATCC, Manassas, VA, USA) were seeded into a 96-well microplate at a density of 1 × 10^5 cells/well in EMEM medium supplemented with 10% of FBS, 2 mM L-glutamine and 1 × antibiotic antimycotic solution. The cells were maintained in a CO2 incubator (5% CO2, 37 °C, Memmert GmbH & Co, Büchenbach, Germany). The following day, the plates were washed with PBS and new fresh DMEM was added into each well supplemented with tested samples in the concentration range of 6.25–100 µM and fluorescent probe DCFH-DA (12.5 mg/L). After 1 h of incubation at 37 °C, the medium was replaced with AAPH solution (0.16 mg/mL in PBS), except for the negative control, where PBS was added instead. Directly, the fluorescence was recorded for 2 h in 5 min steps at 485/540 nm excitation/emission (ex./em.).

Series [6] in a line: ORAC (oxygen radical absorption capacity) assay. The following applies: fluorescein/AAPH; read-out: ORAC, concentration necessary to halve the fluorescence response (IC50). The protocol: Antioxidant capacity of samples was determined by ORAC (oxygen radical absorption capacity) and CAA (cellular antioxidant activity) assays. ORAC assay was realized by the previously described protocol. Briefly, 50 µL of the fluorescein solution (1.6 µg/mL in phosphate-buffered saline (PBS), pH 7.4) was added by a dispenser (MultiFlo Microplate Dispenser, BioTek Instrument, Winooski, VT, USA) into each well of a 96-well plate. Subsequently, 2 µL of tested compound in the concentration range 1.25–20 µM and 23 µL of PBS were added to the wells. The plate was incubated for 15 min at 37 °C and then 25 µL of AAPH (60 mg/mL) was added to each well. AAPH was replaced with PBS for the negative control. Immediately, the fluorescence was recorded by the microplate reader (SpectraMax i3 Multi-Mode Detection Platform, Molecular Devices, San Jose, CA, USA) for 2 h in 5 min steps (excitation/emission 485/535 nm).

On to `COc1cccc2c1C(=O)c1c(O)c3c(c(O)c1C2=O)C[C@@](O)(C(=O)CO)C[C@@H]3O[C@H]1C[C@H](N)[C@H](O)[C@H](C)O1` [Doxorubicin, doxorubicin hydrochloride, reference compound], for which the IC25 in series [1] (A2780/DOX) stood at 0.94 µM. Moreover, the IC50 in series [1] (Homo sapiens, A2780, read-out: IC50 (µM), concentration necessary to halve cell viability) was 1.88 ± 0.07 µM; in series [2] it was 1.88 ± 0.07 µM. As for `COc1ccc2c(c1)c(CC(=O)O)c(C)n2C(=O)c1ccc(Cl)cc1` [Indomethacin, indomethacin, reference compound], in series [3], the IC50 was 78.1 ± 7.5 µM.

With `[Na+].[Na+].[Na+].[O]=[V]([O-])([O-])[O-]` [Orthovanadate, Sodium orthovanadate (Na3VO4), reference compound], in series [4], the IC50 was 18.9 ± 1.8 µM.

Consider `O=c1c(O)c(-c2ccc(O)c(O)c2)oc2cc(O)cc(O)c12` [Quercetin, quercetin, reference compound], for which the IC50 in series [5] amounted to 5.4 ± 0.3 µM; in series [6], 6 ± 0.7 µM.

In general, IC25 refers to the point of the concentration-response curve where the effect stands at 25%. Higher therefore signals a need for much substance.
